PubChem BioAssay (NCI)
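These data come from cells grown in 96-well plates and exposed to compound for 48 hours at five concentrations. The concentration for 50% growth inhibition is given as GI50. Definition used: TGI = concentration required for complete inhibition of growth.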

Key:
Experiment in all cases: NCI anticancer screen, dose series, 48 h
[1] = tested on: MCF7 breast
[2] = tested on: COLO 205 colon
[3] = tested on: KM12 colon
[4] = tested on: T-47D breast
[5] = tested on: MDA-MB-435
[6] = tested on: HCC-2998 colon
[7] = tested on: SK-MEL-5 melanoma
[8] = tested on: BT-549 breast
[9] = tested on: SF-295 CNS
[10] = tested on: HOP-92 NSCLC
[11] = tested on: HOP-62 NSCLC
[12] = tested on: SK-OV-3 ovarian
[13] = tested on: RXF 393 renal
[14] = tested on: NCI/ADR-RES ovarian
[15] = tested on: SF-539 CNS
[16] = tested on: NCI-H226 lung
[17] = tested on: DU-145 prostate
[18] = tested on: HL-60(TB) leukemia
[19] = tested on: SN12C renal
[20] = tested on: HCT-116 colon
[21] = tested on: U251 CNS
[22] = tested on: RPMI-8226 leukemia
[23] = tested on: OVCAR-8 ovarian
[24] = tested on: CAKI-1 renal
[25] = tested on: MALME-3M melanoma
[26] = tested on: M14 melanoma
[27] = tested on: MOLT-4 leukemia
[28] = tested on: NCI-H522 lung
[29] = tested on: ACHN renal
[30] = tested on: OVCAR-4 ovarian
[31] = tested on: SNB-75 CNS
[32] = tested on: UACC-62 melanoma
[33] = tested on: A498 renal
[34] = tested on: HT29 colon
[35] = tested on: SK-MEL-2 melanoma
[36] = tested on: 786-0 renal
[37] = tested on: NCI-H23 lung
[38] = tested on: A549 NSCLC
[39] = tested on: HCT-15 colon
[40] = tested on: OVCAR-3 ovarian
[41] = tested on: SNB-19 CNS
[42] = tested on: K-562 leukemia
[43] = tested on: PC-3 prostate
[44] = tested on: LOX IMVI melanoma
[45] = tested on: IGROV1 ovarian
[46] = tested on: UO-31 renal
[47] = tested on: CCRF-CEM leukemia
[48] = tested on: SR leukemia
[49] = tested on: HS 578T breast
[50] = tested on: MDA-MB-231 breast
[51] = tested on: UACC-257 melanoma
[52] = tested on: OVCAR-5 ovarian
[53] = tested on: SK-MEL-28 melanoma
[54] = tested on: SW-620 colon
[55] = tested on: NCI-H460 lung
[56] = tested on: TK-10 renal
[57] = tested on: SF-268 CNS
[58] = tested on: EKVX NSCLC

In the case of `COc1ccc(-n2nc(C)c3c(Nc4ccc(NC(=O)Nc5cccc(C(F)(F)F)c5)cc4)ncnc32)cc1`, the GI50 [1] is reported as 2.05 µM, the TGI [1] is reported as 5.57 µM and the GI50 [2] is reported as 1.65 µM. For the same compound, the TGI [2] was 3.49 µM, the GI50 [3] was 1.63 µM and the TGI [3] was 3.76 µM. For the same compound, the GI50 [4] was 1.64 µM, the TGI [4] was 4.84 µM and the GI50 [5] was 1.8 µM. For the same compound, the TGI [5] was 3.78 µM, the GI50 [6] was 2.24 µM and the TGI [6] was 5.31 µM. The GI50 [7] was 1.75 µM, the TGI [7] was 3.21 µM and the GI50 [8] was 1.97 µM. The TGI [8] was 5.32 µM, the GI50 [9] was 1.67 µM and the TGI [9] was 3.3 µM. For the same compound, the GI50 [10] was 1.59 µM, the TGI [10] was 3.31 µM and the GI50 [11] was 1.73 µM. It also gave a TGI [11] of 3.45 µM, a GI50 [12] of 2.13 µM and a TGI [12] of 5.3 µM. The GI50 [13] was 0.846 µM, the TGI [13] was 2.34 µM and the GI50 [14] was 1.81 µM. For the same compound, the TGI [14] was 4.72 µM, the GI50 [15] was 1.28 µM and the TGI [15] was 2.66 µM. The GI50 [16] was 1.84 µM, the TGI [16] was 4.2 µM and the GI50 [17] was 1.97 µM. It also gave a TGI [17] of 4.54 µM, a GI50 [18] of 2.31 µM and a TGI [18] of 5.51 µM. The GI50 [19] was 1.79 µM, the TGI [19] was 3.86 µM and the GI50 [20] was 1.62 µM. The TGI [20] was 3.46 µM, the GI50 [21] was 1.08 µM and the TGI [21] was 2.35 µM. It also gave a GI50 [22] of 1.78 µM, a TGI [22] of 4.69 µM and a GI50 [23] of 1.93 µM. The TGI [23] was 4.39 µM, the GI50 [24] was 1.46 µM and the TGI [24] was 2.96 µM. It also gave a GI50 [25] of 1.59 µM, a TGI [25] of 3.31 µM and a GI50 [26] of 1.54 µM. For the same compound, the TGI [26] was 3.36 µM, the GI50 [27] was 2.01 µM and the TGI [27] was 6.16 µM. The GI50 [28] was 1.6 µM, the TGI [28] was 3.8 µM and the GI50 [29] was 1.6 µM. The TGI [29] was 3.43 µM, the GI50 [30] was 2.1 µM and the TGI [30] was 5.27 µM. For the same compound, the GI50 [31] was 0.87 µM, the TGI [31] was 3.03 µM and the GI50 [32] was 1.76 µM. It also gave a TGI [32] of 3.46 µM, a GI50 [33] of 1.99 µM and a TGI [33] of 4.45 µM. For the same compound, the GI50 [34] was 1.77 µM, the TGI [34] was 3.96 µM and the GI50 [35] was 2.04 µM. The TGI [35] was 4.01 µM, the GI50 [36] was 1.56 µM and the TGI [36] was 3.03 µM. For the same compound, the GI50 [37] was 1.68 µM, the TGI [37] was 3.68 µM and the GI50 [38] was 1.65 µM. The TGI [38] was 3.45 µM, the GI50 [39] was 1.46 µM and the TGI [39] was 3.27 µM. For the same compound, the GI50 [40] was 1.74 µM, the TGI [40] was 3.92 µM and the GI50 [41] was 1.95 µM. For the same compound, the TGI [41] was 4.65 µM, the GI50 [42] was 2.18 µM and the TGI [42] was 7.22 µM. The GI50 [43] was 1.49 µM, the TGI [43] was 3.9 µM and the GI50 [44] was 1.3 µM. It also gave a TGI [44] of 2.65 µM, a GI50 [45] of 2 µM and a TGI [45] of 4.18 µM. For the same compound, the GI50 [46] was 1.51 µM, the TGI [46] was 2.86 µM and the GI50 [47] was 2.3 µM. It also gave a TGI [47] of 8.76 µM, a GI50 [48] of 2.54 µM and a TGI [48] of 9.38 µM. For the same compound, the GI50 [49] was 1.66 µM, the TGI [49] was 4.17 µM and the GI50 [50] was 1.46 µM. The TGI [50] was 3.14 µM, the GI50 [51] was 1.88 µM and the TGI [51] was 4.18 µM. It also gave a GI50 [52] of 1.76 µM, a TGI [52] of 4.12 µM and a GI50 [53] of 1.85 µM. The TGI [53] was 4.76 µM, the GI50 [54] was 2.14 µM and the TGI [54] was 5.18 µM. For the same compound, the GI50 [55] was 1.98 µM, the TGI [55] was 4.12 µM and the GI50 [56] was 2.39 µM. It also gave a TGI [56] of 6.6 µM, a GI50 [57] of 2.14 µM and a TGI [57] of 5.51 µM. The GI50 [58] was 1.93 µM and the TGI [58] was 4.34 µM.

Work on `O=C(CSSCC(=O)c1ccc(Cl)cc1)c1ccc(Cl)cc1` yielded a GI50 [1] of 3.76 µM, a TGI [1] of 17.8 µM and a GI50 [2] of 14.2 µM. The TGI [2] was 29.8 µM, the GI50 [3] was 3.82 µM and the TGI [3] was 24.4 µM. For the same compound, the GI50 [4] was 8.66 µM, the TGI [4] was 45.2 µM and the GI50 [5] was 2.57 µM. For the same compound, the TGI [5] was 11 µM, the GI50 [6] was 8.56 µM and the TGI [6] was 22.2 µM. It also gave a GI50 [7] of 3.32 µM, a TGI [7] of 10.5 µM and a GI50 [8] of 8.92 µM. It also gave a TGI [8] of 39.9 µM, a GI50 [9] of 2.58 µM and a TGI [9] of 15.2 µM. It also gave a GI50 [10] of 5.37 µM, a TGI [10] of 19.4 µM and a GI50 [11] of 5.03 µM. For the same compound, the TGI [11] was 21.7 µM, the GI50 [12] was 4.34 µM and the TGI [12] was 22.4 µM. The GI50 [13] was 4.49 µM, the TGI [13] was 14.7 µM and the GI50 [14] was 2.69 µM. It also gave a TGI [14] of 13.1 µM, a GI50 [15] of 7.36 µM and a TGI [15] of 23.8 µM. For the same compound, the GI50 [16] was 11.7 µM, the TGI [16] was 30.7 µM and the GI50 [17] was 4.77 µM. The TGI [17] was 91.3 µM, the GI50 [18] was 3.75 µM and the TGI [18] was greater than 100 µM. For the same compound, the GI50 [19] was 3.7 µM, the TGI [19] was 36.4 µM and the GI50 [20] was 3.79 µM. For the same compound, the TGI [20] was 14.8 µM, the GI50 [21] was 4.16 µM and the TGI [21] was 17.5 µM. It also gave a GI50 [22] of 3.2 µM, a TGI [22] of 12.3 µM and a GI50 [23] of 5.06 µM. The TGI [23] was 23.2 µM, the GI50 [24] was 4.99 µM and the TGI [24] was 28.6 µM. It also gave a GI50 [25] of 3.19 µM, a TGI [25] of 17 µM and a GI50 [26] of 5.59 µM. For the same compound, the TGI [26] was 22.1 µM, the GI50 [27] was 3.28 µM and the TGI [27] was greater than 100 µM. The GI50 [28] was 3.56 µM, the TGI [28] was 15.3 µM and the GI50 [29] was 8.75 µM. It also gave a TGI [29] of 24.1 µM, a GI50 [30] of 18.3 µM and a TGI [30] of 93.9 µM. It also gave a GI50 [31] of 6.62 µM, a TGI [31] of 21.4 µM and a GI50 [32] of 3.1 µM. For the same compound, the TGI [32] was 14.5 µM, the GI50 [33] was 9.77 µM and the TGI [33] was 23 µM. It also gave a GI50 [34] of 3.42 µM, a TGI [34] of 17 µM and a GI50 [35] of 3.8 µM. For the same compound, the TGI [35] was 15.1 µM, the GI50 [36] was 4.41 µM and the TGI [36] was 14.5 µM. It also gave a GI50 [37] of 8.22 µM, a TGI [37] of 30.3 µM and a GI50 [38] of 10.4 µM. It also gave a TGI [38] of 43.2 µM, a GI50 [39] of 6.73 µM and a TGI [39] of 28.6 µM. The GI50 [40] was 5.39 µM, the TGI [40] was 26.1 µM and the GI50 [41] was 4.94 µM. It also gave a TGI [41] of 40.3 µM, a GI50 [42] of 3.28 µM and a TGI [42] greater than 100 µM. It also gave a GI50 [43] of 6.12 µM, a TGI [43] of 30.5 µM and a GI50 [44] of 2.6 µM. For the same compound, the TGI [44] was 8.2 µM, the GI50 [45] was 5.83 µM and the TGI [45] was 26.6 µM. For the same compound, the GI50 [46] was 3.48 µM, the TGI [46] was 17.5 µM and the GI50 [47] was 3.39 µM. The TGI [47] was greater than 100 µM, the GI50 [48] was 2.82 µM and the TGI [48] was greater than 100 µM. For the same compound, the GI50 [49] was 7.51 µM, the TGI [49] was greater than 100 µM and the GI50 [50] was 4.93 µM. For the same compound, the TGI [50] was 24.2 µM, the GI50 [51] was 5.18 µM and the TGI [51] was 34.4 µM. It also gave a GI50 [52] of 5.83 µM, a TGI [52] of 21.5 µM and a GI50 [53] of 5.83 µM. It also gave a TGI [53] of 22.5 µM, a GI50 [54] of 4.13 µM and a TGI [54] of 23.6 µM. For the same compound, the GI50 [55] was 3.35 µM, the TGI [55] was 26.9 µM and the GI50 [56] was 3.83 µM. The TGI [56] was 13.8 µM, the GI50 [57] was 4.3 µM and the TGI [57] was 64.7 µM. It also gave a GI50 [58] of 9.8 µM and a TGI [58] greater than 100 µM.
